Patent US20170280720A1, “ARGININE […] INHIBITORS AND USES THEREOF” (EPIZYME, INC., priority 2014, published 2017)

target: T1, human PRMT1 (Homo sapiens, UniProt Q99873); experiment: PRMT1 biochemical assay (3H-SAM Flashplate, peptide substrate); details: read-out: PRMT1_ IC50
T1 construct: GST-tagged PRMT1; made in house; host or cells: High Five insect cells (baculovirus, pFastBacI)
Procedure, shortened: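 FLAG-tagged full-length human PRMT1 (0.5 nM, GST-tagged, insect-cell expressed) preincubated 30 min at RT with compound, then biotinylated histone H4 36-50 peptide (20 nM) plus 200 nM 3H-SAM and 1.5 uM SAM in Bicine pH 7.6, 2% DMSO. 3H-methylated peptide captured on streptavidin Flashplate; IC50 from 3/4-parameter fit.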

T1 sequence (Q99873 with tags, fused parts or gaps): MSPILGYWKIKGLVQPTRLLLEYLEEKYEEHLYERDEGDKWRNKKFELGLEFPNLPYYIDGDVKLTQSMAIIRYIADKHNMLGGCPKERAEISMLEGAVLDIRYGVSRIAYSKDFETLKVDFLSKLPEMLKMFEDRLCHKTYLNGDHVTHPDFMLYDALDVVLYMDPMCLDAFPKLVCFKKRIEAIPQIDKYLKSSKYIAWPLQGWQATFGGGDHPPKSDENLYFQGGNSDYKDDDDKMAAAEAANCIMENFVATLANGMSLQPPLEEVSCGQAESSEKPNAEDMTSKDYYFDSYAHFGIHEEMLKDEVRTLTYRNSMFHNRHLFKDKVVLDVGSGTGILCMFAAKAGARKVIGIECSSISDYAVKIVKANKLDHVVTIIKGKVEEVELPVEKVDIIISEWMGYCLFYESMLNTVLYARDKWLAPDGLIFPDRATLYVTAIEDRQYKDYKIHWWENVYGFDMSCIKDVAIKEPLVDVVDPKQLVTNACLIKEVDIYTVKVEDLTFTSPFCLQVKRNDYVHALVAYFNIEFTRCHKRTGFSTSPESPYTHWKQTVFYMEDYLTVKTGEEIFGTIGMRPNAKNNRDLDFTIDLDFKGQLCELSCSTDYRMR

Row | SMILES | IC50 [nM]
1 | CC(C)n1ncc2c(NC3CCOCC3)cc(-c3cccc(CN(C)CCN)c3)nc21 [Compound 101] | 488
2 | CNCCN(C)Cc1cccc(-c2cc(OC3CCOC3)c3cnn(C(C)C)c3n2)c1 (stereo not drawn) [Compound 102] | 492
3 | CNCCN(C)Cc1cccc(-c2cc(N(C)C)c3cnn(C(C)C)c3n2)c1 [Compound 103] | 517
4 | NCCNCc1ccc(-c2ccc3ncn(Cc4ccc(C(=O)N5CCCC5)cc4)c3c2)cc1 [Compound 104] | 531
5 | CNCCN(C)Cc1cccc(-c2cc(C(=O)NCC3CCOCC3)c3cnn(C(C)C)c3n2)c1 [Compound 105] | 548
6 | Cc1cccc(-n2cnc3ccc(-c4ccc(CNCCN)cc4)cc32)c1 [Compound 106] | 558
7 | CC(C)n1ncc2c(NS(=O)(=O)N(C)C)cc(-c3cccc(CN(C)CCN)c3)nc21 [Compound 107] | 562
8 | CC(C)n1ncc2c(C(=O)NCC3CCOCC3)cc(-c3cccc(CN(C)CCN)c3)nc21 [Compound 108] | 568
9 | CNCCN(C)Cc1cccc(-c2nc(N(C)C3CCOCC3)c3cnn(C4CC4)c3n2)c1 [Compound 109, N1-(3-(1-cyclopropyl-4-(methyl(tetrahydro-2H-pyran-4-yl)amino)-1H-pyrazolo[3,4-d]pyrimidin-6-yl)benzyl)-N1,N2-dimethylethane-1,2-diamine] | 570
10 | COc1cccc(-n2cnc3ccc(-c4ccc(CNCCN)cc4)cc32)c1 [Compound 110] | 583
11 | CCS(=O)(=O)Nc1cc(-c2cccc(CN(C)CCN)c2)nc2c1cnn2C(C)C [Compound 111] | 585
12 | CNCCN(C)Cc1cccc(-c2cc(C(=O)NCCCCCC(=O)NCC3CCOCC3)c3cnn(C(C)C)c3n2)c1 [Compound 112] | 588
13 | CNCCN(C)Cc1cccc(-c2nc(NC3CC3)c3cnn(C4CC4)c3n2)c1 [Compound 114] | 617
14 | COc1ccccc1-c1nc2ccc(-c3ccc(CNCCN)cc3)cc2[nH]1 [Compound 115] | 629
15 | CC(C)n1ncc2c(NC(=O)N(C)C)cc(-c3cccc(CN(C)CCN)c3)nc21 [Compound 116] | 640
16 | CNCCN(C)Cc1cccc(-c2cc(C(=O)NCCCCCC(=O)NCc3ccn(C)n3)c3cnn(C(C)C)c3n2)c1 [Compound 117] | 642
17 | CNCCN(C)Cc1cccc(-c2cc(C(=O)NCCCCC(=O)NCC3CCOCC3)c3cnn(C(C)C)c3n2)c1 [Compound 118] | 668
18 | CN(CCN)Cc1cccc(-c2nc(N(C)C3CCOCC3)c3cnn(C4CC4)c3n2)c1 [Compound 119] | 714
19 | CNCCN(C)Cc1cccc(-c2cc(C(=O)NCc3cc(C)nn3C)c3cnn(C(C)C)c3n2)c1 [Compound 120] | 718
20 | CNCCN(C)Cc1cccc(-c2cc(NC)c3cnn(C(C)C)c3n2)c1 [Compound 121] | 721
21 | CNCCN(C)Cc1cccc(-c2cc(C(=O)NCCCCC(=O)NCc3ccn(C)n3)c3cnn(C(C)C)c3n2)c1 [Compound 122] | 725
22 | CNCCN(C)Cc1cccc(-c2cc(NC(=O)N(C)C)c3cnn(C(C)C)c3n2)c1 [Compound 123] | 766
23 | CNCCN(C)Cc1cccc(-c2cc(OC)c3cnn(C(C)C)c3n2)c1 [Compound 124] | 770
24 | CC(C)n1ncc2c(C(=O)N[C@@H](C)c3ccccc3)cc(-c3cccc(CNCCN)c3)cc21 [Compound 125] | 783
